For assay [1], the system named is obese, diabetic mouse model (db/db mice). Put plainly: Pharmacodynamic study in db/db mice: acute effect on blood glucose and body weight. The assay is classed as in vivo. On the procedure:
The purpose of the study is to verify the acute effect of the GLP-1 derivatives on blood glucose (BG) and body weight (BW) in a diabetic setting.
The GLP-1 derivatives of Examples 2-4 and 6-10 were tested in a single-dose study in an obese, diabetic mouse model (db/db mice) as described in the following.
Six db/db mice per compound to be tested (from Taconic, Denmark), fed from birth with the diet NIH31 (NIH 31M Rodent Diet, commercially available from Taconic Farms, Inc., US, see www.taconic.com), were enrolled for the study at the age of approximately 10 weeks. At arrival to the animal facility the mice were given free access to standard chow (e.g. Altromin 1324, Brogaarden, Denmark) and tap water and kept at 24° C. After 1-2 weeks of acclimatisation, the basal blood glucose was assessed twice on two consecutive days (i.e. at 9 am). The mice were allocated to treatment groups based on matching blood glucose levels and body weights. […]
On the day of dosing, blood glucose was assessed at time −½ h (8.30 am), the mice were weighed after this. […] On the day of dosing, blood glucose was assessed at times 1, 2, 4 and 8 h (10 am, 11 am, 1 pm and 5 pm) after dosing.
On the following days, the blood glucose was assessed at time 24 h, 48 h, 72 h, and 96 h (all Example compounds), and for the GLP-1 derivatives of Examples […] blood glucose was further assessed daily up to 240 h after dosing. […]
Samples for the measurement of blood glucose were obtained from the tail tip capillary of conscious mice. […] The glucose concentration was measured using the glucose oxidase method (glucose analyser Biosen 5040, EKF Diagnostic, GmbH, Germany). […]
The data are presented as percent change in blood glucose or body weight measured at the 48 h time points. For example, the percent change in blood glucose level at 48 h for each individual is calculated as follows: [[(blood glucose level at 48 h)−(basal blood glucose level)]/(basal blood glucose level)]×100%], where basal blood glucose level refers to the level before the administration of any treatment−and vice versa for the body weight change. […]

Assay [2] has as its target T1, human GLP-1 receptor (Homo sapiens, UniProt P43220).
T1 construct: expressed in transfected cells; host or cells: membrane preparation from BHK cells, clone FCW467-12A (parent line BHKTS13)
Kind of assay: GLP-1 receptor binding: competitive binding assay (125I-GLP-1, SPA) on isolated membranes at low and high HSA.
Experimental: The purpose of this example is to test the receptor binding of the GLP-1 derivatives in vitro. The receptor binding is a measure of affinity of a derivative for the human GLP-1 receptor.
Each derivative is added in a series of concentrations to isolated membranes containing the human GLP-1 receptor and displacement of the labelled ligand is monitored. The receptor binding is reported as the concentration at which half of the labelled ligand is displaced from the receptor, the IC50 value.
Buffer 1 consisted of 20 mM Na-HEPES plus 10 mM EDTA and pH was adjusted to 7.4. Buffer 2 consisted of 20 mM Na-HEPES plus 0.1 mM EDTA and pH was adjusted to 7.4. Assay buffer consisted of 50 mM HEPES supplemented with 5 mM EGTA, 5 mM MgCl2, 0.005% Tween 20 and pH was adjusted to 7.4. An 8% albumin stock consisted of HSA dissolved at 8% (w/v) in assay buffer. An 0.02% albumin stock consisted of HSA dissolved at 0.02% (w/v) in assay buffer.
The cells express the human GLP-1 receptor.
The cells were grown at 5% CO2 in DMEM, 10% fetal calf serum, 1% Pen/Strep (Penicillin/Streptomycin) and 1.0 mg/ml of the selection marker G418.
To make a membrane preparation the cells were grown to approximately 80% confluence. The cells were washed twice in phosphate-buffered saline and harvested. The cells were pelleted using a brief centrifugation and the cell pellet was kept on ice. […] The homogenate was centrifuged for 15 minutes. The pellet was re-suspended (homogenised) in 10 ml buffer 2 and centrifuged. This step was repeated once more. The resulting pellet was re-suspended in buffer 2 and the protein concentration was determined. The membranes were aliquoted and stored at minus 80° C.
For the receptor binding assay in the presence of low HSA (0.005%) 50 μl of the assay buffer was added to each well of an assay plate.
For the receptor binding assay in the presence of high HSA (2%) 50 μl of the 8% albumin stock was added to each well of an assay plate.
Cell membrane aliquots were thawed and diluted to their working concentration. Fifty μl were added to each well in the assay plate.
WGA SPA beads were suspended in assay buffer at 20 mg/ml. The suspension was diluted to 10 mg/ml in assay buffer just prior to addition to the assay plate. Fifty μl were added to each well in the assay plate.
A 25 μl aliquot was reserved for measuring total counts/well.
The assay plate was incubated for 2 h at 30° C.
The assay plate was centrifuged for 10 min.
The assay plate was read in a Packard TopCount NXT instrument.
The data from the TopCount instrument were transferred to Graph Pad Prism software. Individual replicates were analysed using non-linear regression. IC50 values were calculated by the software and reported in nM. The reported values are averages of all of the measured values for each compound.

Assay [3] concerns the target T1, human GLP-1 receptor. Kind of assay: In vitro potency: CRE luciferase reporter gene assay in BHK cells expressing the human GLP-1 receptor. The following applies: whole cell reporter gene assay, 3 h incubation, average of at least two replicates. The assay is classed as cell-based. A general note: A reporter such as luciferase makes a cellular process visible.
Experimental: The purpose of this example is to test the activity, or potency, of the GLP-1 derivatives in vitro. The in vitro potency is the measure of human GLP-1 receptor activation in a whole cell assay.
In vitro potency was determined by measuring the response of the human GLP-1 receptor in a reporter gene assay. The assay was performed in a stably transfected BHK cell line that expresses the human GLP-1 receptor and contains the DNA for the cAMP response element (CRE) coupled to a promoter and the gene for firefly luciferase (CRE luciferase). When the human GLP-1 receptor is activated it results in the production of cAMP, which in turn results in the luciferase protein being expressed. When assay incubation is completed the luciferase substrate (luciferin) is added and the enzyme converts luciferin to oxyluciferin to produce bioluminescence. The luminescence is measured as the readout for the assay.
The cells were cultured at 5% CO2 in cell culture medium. They were aliquoted and stored in liquid nitrogen. Before each assay an aliquot was taken up and washed twice in PBS before being suspended at the desired concentration in the assay specific buffer.
Assay medium consisted of DMEM w/o phenol red, 10 mM Hepes and 1χ Glutamax. The assay buffer consisted of 2% ovalbumin and 0.2% Pluronic F-68 in assay medium.
1) Cell stocks were thawed in a 37° C. water bath.
2) Cells were washed three times in PBS.
3) Cells were counted and adjusted to 5×10^3 cells/50 μl (1×10^5 cells/ml) in assay medium. A 50 μl aliquot of cells was transferred to each well in the assay plate.
4) Stocks of the test compounds and reference compounds were diluted to a concentration of 0.2 μM in assay buffer. […] 8) A 100 μl aliquot of steadylite plus reagent was added to each well of the assay plate. […] 10) Each assay plate was read in a BioTek Synergy 2 Multi-Mode Reader.
The data from the BioTek Synergy 2 Multi-Mode Reader were transferred to GraphPad Prism software. […]
A minimum of two replicates was measured for each sample. The reported EC50 values are averages of all of the measured values for each compound.
Where [4] appears, read: single s.c. dose 10 nmol/kg, 48 h vs basal.

The structures appear in SMILES notation. Where two headings read alike, the source gives them in different places.

T1 sequence (P43220 24-463): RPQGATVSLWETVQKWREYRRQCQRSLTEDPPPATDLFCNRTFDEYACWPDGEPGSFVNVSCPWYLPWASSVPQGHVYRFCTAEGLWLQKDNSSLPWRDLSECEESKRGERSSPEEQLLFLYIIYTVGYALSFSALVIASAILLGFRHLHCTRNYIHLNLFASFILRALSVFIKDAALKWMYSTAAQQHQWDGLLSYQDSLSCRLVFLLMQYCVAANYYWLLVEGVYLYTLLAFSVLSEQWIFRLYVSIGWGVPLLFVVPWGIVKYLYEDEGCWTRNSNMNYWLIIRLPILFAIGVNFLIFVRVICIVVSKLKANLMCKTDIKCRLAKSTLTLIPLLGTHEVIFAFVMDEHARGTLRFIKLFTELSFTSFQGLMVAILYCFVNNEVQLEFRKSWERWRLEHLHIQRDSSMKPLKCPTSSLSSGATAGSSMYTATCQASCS

What is called IC50 is the concentration that gives 50% inhibition. For orientation: EC50 means the concentration that produces a half-maximal response. Low readings indicate greater potency, high ones weaker potency. With `CC[C@H](C)[C@H](NC(=O)[C@H](Cc1ccccc1)NC(=O)[C@H](CCC(=O)O)NC(=O)[C@H](CCCNC(=N)N)NC(=O)[C@H](C)NC(=O)[C@H](C)NC(=O)[C@H](CCC(N)=O)NC(=O)[C@H](CCC(=O)O)NC(=O)[C@H](CCC(=O)O)NC(=O)[C@H](CC(C)C)NC(=O)[C@H](Cc1ccc(O)cc1)NC(=O)[C@H](CO)NC(=O)[C@H](CO)NC(=O)[C@@H](NC(=O)[C@H](CC(=O)O)NC(=O)[C@H](CO)NC(=O)[C@@H](NC(=O)[C@H](Cc1ccccc1)NC(=O)[C@@H](NC(=O)CNC(=O)[C@H](CCC(=O)O)NC(=O)C(C)(C)NC(=O)[C@@H](N)Cc1c[nH]cn1)[C@@H](C)O)[C@@H](C)O)C(C)C)C(=O)N[C@@H](C)C(=O)N[C@@H](Cc1c[nH]c2ccccc12)C(=O)N[C@@H](CC(C)C)C(=O)N[C@H](C(=O)N[C@@H](CCCNC(=N)N)C(=O)NCC(=O)N[C@@H](CCCNC(=N)N)C(=O)N[C@@H](CCCCNC(=O)[C@@H](N)CCCCNC(=O)[C@@H](N)CCCCNC(=O)[C@@H](N)CCCCNC(=O)[C@@H](N)CCCCNC(=O)[C@H](CCCCNC(=O)CC[C@H](NC(=O)[C@H]1CC[C@H](CNC(=O)CCCCCCCCCCCCCCCCCCC(=O)O)CC1)C(=O)O)NC(=O)CC[C@H](NC(=O)[C@H]1CC[C@H](CNC(=O)CCCCCCCCCCCCCCCCCCC(=O)O)CC1)C(=O)O)C(=O)O)C(C)C` [Example 10, N{Epsilon-37}-[(2S)-2-amino-6-[[(2S)-2-amino-6-[[(2S)-2-amino-6-[[(2S)-2-amino-6-[[(2S)-2,6-bis[[(4S)-4-carboxy-4-[[4-[(19-carboxynonadecanoylamino)methyl]cyclohexanecarbonyl]amino]butanoyl]amino]hexanoyl]amino]hexanoyl]amino]hexanoyl]amino]hexanoyl]amino]hexanoyl]-[Aib8,Glu22,Arg26,Arg34,Lys37]-GLP-1-(7-37)-peptide], the “effect on BG” value in assay [1] (after 48 h, single s.c. injection of either 3, 10 or 30 nmol/kg) was “not as pronounced”. Moreover, in assay [1] (setting [4]), the “% change in blood glucose” value is given as −3% and the “% change in body weight” value is −3%. Also, the IC50 at human GLP-1 receptor [2] (low HSA (max. 0.001% final assay concentration), read-out: Low HSA IC50) stood at 19 nM. The compound also returned an EC50 at human GLP-1 receptor [3] of 0.15 nM.
As for `CC[C@H](C)[C@H](NC(=O)[C@H](Cc1ccccc1)NC(=O)[C@H](CCC(=O)O)NC(=O)[C@H](CCCNC(=N)N)NC(=O)[C@H](C)NC(=O)[C@H](C)NC(=O)[C@H](CCC(N)=O)NC(=O)[C@H](CCC(=O)O)NC(=O)[C@H](CCC(=O)O)NC(=O)[C@H](CC(C)C)NC(=O)[C@H](Cc1ccc(O)cc1)NC(=O)[C@H](CO)NC(=O)[C@H](CO)NC(=O)[C@@H](NC(=O)[C@H](CC(=O)O)NC(=O)[C@H](CO)NC(=O)[C@@H](NC(=O)[C@H](Cc1ccccc1)NC(=O)[C@@H](NC(=O)CNC(=O)[C@H](CCC(=O)O)NC(=O)C(C)(C)NC(=O)[C@@H](N)Cc1c[nH]cn1)[C@@H](C)O)[C@@H](C)O)C(C)C)C(=O)N[C@@H](C)C(=O)N[C@@H](Cc1c[nH]c2ccccc12)C(=O)N[C@@H](CC(C)C)C(=O)N[C@H](C(=O)N[C@@H](CCCNC(=N)N)C(=O)NCC(=O)N[C@@H](CCCNC(=N)N)C(=O)N[C@@H](CCCCNC(=O)COCCOCCNC(=O)COCCOCCNC(=O)[C@H](CCCCNC(=O)CC[C@H](NC(=O)[C@H]1CC[C@H](CNC(=O)CCCCCCCCCCCCCCCCCCC(=O)O)CC1)C(=O)O)NC(=O)CC[C@H](NC(=O)[C@H]1CC[C@H](CNC(=O)CCCCCCCCCCCCCCCCCCC(=O)O)CC1)C(=O)O)C(=O)O)C(C)C` [Example 11, N{Epsilon-37}-[2-[2-[2-[[2-[2-[2-[[(2S)-2,6-bis[[(4S)-4-carboxy-4-[[4-[(19-carboxynonadecanoylamino)methyl]cyclohexanecarbonyl]amino]butanoyl]amino]hexanoyl]amino]ethoxy]ethoxy]acetyl]amino]ethoxy]ethoxy]acetyl]-[Aib8,Glu22,Arg26,Arg34,Lys37]-GLP-1-(7-37)-peptide], the half-inhibitory concentration (IC50) at human GLP-1 receptor [2] (High HSA IC50 (nM), high HSA (2.0% final assay concentration)) was determined as 150 nM; at human GLP-1 receptor [2] (Low HSA IC50 (nM), low HSA (max. 0.001% final assay concentration)) it was 1.5 nM. On human GLP-1 receptor [3], this compound returned an EC50 of 0.13 nM.

The values above are taken from patent US10392428B2, “GLP-1 derivatives and uses thereof” (Novo Nordisk A/S, priority 2014, dated 2019).
